The assay deals with T1, human PD-1 / PD-L1-Ig binding on Jurkat cell line over-expressing human PD-1 (Jurkat-PD-1) (Homo sapiens, UniProt Q15116).
T1 construct: expressed in transfected cells; host or cells: Jurkat
The experiment in a line: Jurkat-PD-1 Cell Binding High-Content Screening Assay (CBA). The class given is cell-based. As to conditions: Jurkat-PD-1 cells, PE-labeled PD-L1-Ig 20 nM final; read-out: Jurkat HPD1_PDL1 IC50. In short, it runs like this:
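PE-PD-L1-Ig 20 nM final; cells in DMEM/10% FCS; cpd pre-incubation 2 h, 37° C; ligand 1 h; PFA fix + Hoechst 33342; high-content imaging read-out.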

Consider 15 compounds from patent US20250163104A1, “MACROCYCLIC IMMUNOMODULATORS” (priority 2021, published 2025).

Broadly, the IC50 is the concentration needed to halve the response being measured.

Where a SMILES comes first, the peptide text is derived from it. Bridges are numbered along the chain shown (N, C = ends). [ ]: non-standard residue; d: D form. The star is where a group is joined. ξ: configuration not given here. Bip(3'-COOH) = N[C@@H](Cc1ccc(-c2cccc(C(=O)O)c2)cc1)C(=O)O; Phe(4-COOH) = N[C@@H](Cc1ccc(C(=O)O)cc1)C(=O)O; Bip = N[C@@H](Cc1ccc(-c2ccccc2)cc1)C(=O)O; Phe(3-Cl) = N[C@@H](Cc1cccc(Cl)c1)C(=O)O; Phe(4-NH2) = Nc1ccc(C[C@H](N)C(=O)O)cc1; Phe(3-F) = N[C@@H](Cc1cccc(F)c1)C(=O)O; Phe(3-Me) = Cc1cccc(C[C@H](N)C(=O)O)c1; Phe(2-Me) = Cc1ccccc1C[C@H](N)C(=O)O; Val(3-OH) = CC(C)(O)[C@H](N)C(=O)O; 4Pal = N[C@@H](Cc1ccncc1)C(=O)O; Cha = N[C@@H](CC1CCCCC1)C(=O)O; Ile(3ξ) = CCC(C)[C@H](N)C(=O)O; hSer = N[C@@H](CCO)C(=O)O; Carboxymethyl = O=C(O)C*; Orn = NCCC[C@H](N)C(=O)O; Dab = NCC[C@H](N)C(=O)O; Dap = NC[C@H](N)C(=O)O; NHCH2CH2OMe = COCCN*; Piv = CC(C)(C)C(=O)*

T1 sequence (Q15116 25-288): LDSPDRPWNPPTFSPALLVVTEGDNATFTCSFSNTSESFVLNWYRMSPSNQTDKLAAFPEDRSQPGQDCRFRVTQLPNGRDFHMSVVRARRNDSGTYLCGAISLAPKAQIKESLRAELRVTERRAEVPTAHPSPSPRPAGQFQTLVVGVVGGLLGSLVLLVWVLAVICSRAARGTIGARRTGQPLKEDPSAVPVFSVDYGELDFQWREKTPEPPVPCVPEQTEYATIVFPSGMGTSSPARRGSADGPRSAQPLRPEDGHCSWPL

In the case of `CC(C)C[C@H]1NC(=O)[C@H](CCCN)NC(=O)[C@H](CCC(=O)O)NC(=O)[C@H](Cc2ccc(-c3ccccc3)cc2)NC(=O)[C@H](C(C)C)NC(=O)[C@H](Cc2c[nH]c3ccccc23)NC(=O)[C@H](CC(=O)O)NC(=O)[C@H](Cc2ccc(OCC(=O)O)cc2)NC(=O)[C@H](CN)NC(=O)CSC[C@@H](C(=O)N[C@@H](C)C(N)=O)NC(=O)[C@H]([C@@H](C)O)NC(=O)[C@H](C(C)C)NC(=O)[C@H](Cc2cccc(F)c2)NC(=O)[C@H](CCN)NC1=O` [Compound 1677] ({CH2CO}-[Dap]Y(Carboxymethyl)DWV[Bip]E[Orn][dL][Dab][Phe(3-F)]VTCA-NH2; thioether N-14), the IC50 worked out at 0.0211 µM.
On to `CCC(C)[C@@H]1NC(=O)[C@H](Cc2ccc(-c3ccccc3)cc2)NC(=O)[C@H](C(C)C)NC(=O)[C@H](Cc2cc(OC)c(F)cc2F)NC(=O)[C@H](CC(=O)O)NC(=O)[C@H](Cc2ccc(OCC(=O)O)cc2)NC(=O)[C@H](CN)NC(=O)CSC[C@@H](C(=O)N[C@@H](C)C(N)=O)NC(=O)[C@H]([C@@H](C)O)NC(=O)[C@H](C(C)C)NC(=O)[C@H](CC2CCCCC2)NC(=O)[C@H](CCN)NC(=O)[C@@H](CC(C)C)NC(=O)[C@H](CCCN)NC1=O` (stereo partly drawn) [Compound 2246], for which the IC50 was determined as 0.0132 µM.
Consider `CC(C)C[C@H]1NC(=O)[C@H](CCCN)NC(=O)[C@H](CCC(=O)O)NC(=O)[C@H](Cc2ccc(-c3ccccc3)cc2)NC(=O)[C@H](C(C)C)NC(=O)[C@H](Cc2c[nH]c3ccccc23)NC(=O)[C@H](CC(=O)O)NC(=O)[C@H](Cc2ccc(N)cc2)NC(=O)[C@H](Cc2ccccc2)NC(=O)CSC[C@@H](C(=O)N[C@@H](C)C(N)=O)NC(=O)[C@H]([C@@H](C)O)NC(=O)[C@H](C(C)C)NC(=O)[C@H](CC2CCCCC2)NC(=O)[C@H](CCN)NC1=O` [Compound 2181] ({CH2CO}-F[Phe(4-NH2)]DWV[Bip]E[Orn][dL][Dab][Cha]VTCA-NH2; thioether N-14), for which the half-maximal inhibitory concentration (IC50) was found to be 0.0264 µM.
In the case of `CC(C)C[C@H]1NC(=O)[C@H](CCCN)NC(=O)[C@H](CCC(=O)O)NC(=O)[C@H](Cc2ccc(-c3ccccc3)cc2)NC(=O)[C@H](C(C)C)NC(=O)[C@H](Cc2c[nH]c3ccccc23)NC(=O)[C@H](CC(=O)O)NC(=O)[C@H](Cc2ccc(OCC(=O)O)cc2)NC(=O)[C@H](CN)NC(=O)CSC[C@@H](C(=O)N[C@@H](C)C(N)=O)NC(=O)[C@H]([C@@H](C)O)NC(=O)[C@H](C(C)C)NC(=O)[C@H](Cc2ccn[nH]2)NC(=O)[C@H](CCN)NC1=O` [Compound 1509], the IC50 worked out at 0.413 µM.
Turning to `CC(C)C[C@H]1NC(=O)[C@H](CCCN)NC(=O)[C@H](CCC(=O)O)NC(=O)[C@H](Cc2ccc(-c3ccccc3)cc2)NC(=O)[C@H](C(C)C)NC(=O)[C@H](Cc2c[nH]c3ccccc23)NC(=O)[C@H](CC(=O)O)NC(=O)[C@H](Cc2ccc(OCC(=O)O)cc2)NC(=O)[C@H](CN)NC(=O)CSC[C@@H](C(=O)N[C@@H](C)C(N)=O)NC(=O)[C@H]([C@@H](C)O)NC(=O)[C@H](C(C)C)NC(=O)[C@H](Cc2cscn2)NC(=O)[C@H](CCN)NC1=O` [Compound 1510], the concentration for half-maximal inhibition (IC50) was found to be 0.0257 µM.
The same measure for `CCC(C)[C@@H]1NC(=O)[C@H](Cc2ccc(-c3ccccc3)cc2)NC(=O)[C@H](C(C)C)NC(=O)[C@H](Cc2c[nH]c3ccccc23)NC(=O)[C@H](CC(=O)O)NC(=O)[C@H](Cc2ccc(-c3cccc(C(=O)O)c3)cc2)NC(=O)[C@H](Cc2ccccc2)NC(=O)CSC[C@@H](C(=O)N[C@@H](C)C(N)=O)NC(=O)[C@H]([C@@H](C)O)NC(=O)[C@H](C(C)C)NC(=O)[C@H](CC2CCCCC2)NC(=O)[C@H](CCN)NC(=O)[C@@H](CC(C)C)NC(=O)[C@H](CCCN)NC1=O` (stereo partly drawn) [Compound 2218] ({CH2CO}-F[Bip(3'-COOH)]DWV[Bip][Ile(3ξ)][Orn][dL][Dab][Cha]VTCA-NH2; thioether N-14): 0.0501 µM.
As to `CC(C)[C@@H]1NC(=O)[C@H](Cc2c[nH]c3ccccc23)NC(=O)[C@H](CC(=O)O)NC(=O)[C@H](Cc2ccc(C(=O)O)cc2)NC(=O)[C@H](Cc2ccncc2)NC(=O)CSC[C@@H](C(=O)N[C@@H](C)C(N)=O)NC(=O)[C@H]([C@@H](C)O)NC(=O)[C@H](C(C)C)NC(=O)[C@H](CC2CCCCC2)NC(=O)[C@H](CCN)NC(=O)[C@@H](Cc2ccccc2)NC(=O)[C@H](CCCN)NC(=O)[C@H](CCC(=O)O)NC(=O)[C@H](Cc2ccc(-c3ccccc3)cc2)NC1=O` [Compound 1432] ({CH2CO}-[4Pal][Phe(4-COOH)]DWV[Bip]E[Orn][dF][Dab][Cha]VTCA-NH2; thioether N-14), the IC50 stood at 0.0174 µM.
Then `Cc1cccc(C[C@@H]2NC(=O)[C@H](CC(=O)O)NC(=O)[C@H](Cc3ccc(OCC(=O)O)cc3)NC(=O)[C@H](Cc3ccncc3)NC(=O)CSC[C@@H](C(=O)N[C@@H](CCN)C(N)=O)NC(=O)[C@H]([C@@H](C)O)NC(=O)[C@H](C(C)C)NC(=O)[C@H](CC3CCCCC3)NC(=O)[C@H](CCNC(=O)C(C)(C)C)NC(=O)[C@@H](CC(C)C)NC(=O)[C@H](CCN)NC(=O)[C@H](Cc3ccc(OCC(=O)O)cc3)NC(=O)[C@H](Cc3ccc(-c4ccccc4)cc3)NC(=O)[C@H](Cc3ccc(OCC(=O)O)cc3)NC2=O)c1` [Compound 2062] ({CH2CO}-[4Pal]Y(Carboxymethyl)D[Phe(3-Me)]Y(Carboxymethyl)[Bip]Y(Carboxymethyl)[Dab][dL][Dab](Piv)[Cha]VTC[Dab]-NH2; thioether N-14), with 0.0128 µM.
The same measure for `CC(C)C[C@H]1NC(=O)[C@H](CCCN)NC(=O)[C@H](C(C)C)NC(=O)[C@H](Cc2ccc(-c3ccccc3)cc2)NC(=O)[C@H](C(C)C)NC(=O)[C@H](Cc2c[nH]c3ccccc23)NC(=O)[C@H](CC(=O)O)NC(=O)[C@H](Cc2ccc(O)cc2)NC(=O)[C@H](CC#N)NC(=O)CSC[C@@H](C(=O)N[C@@H](C)C(N)=O)NC(=O)[C@H](C(C)O)NC(=O)[C@H](C(C)C)NC(=O)[C@H](CC2CCCCC2)NC(=O)[C@H](CCN)NC1=O` (stereo partly drawn) [Compound 2526]: 0.0548 µM.
On to `Cc1cccc(C[C@@H]2NC(=O)[C@H](CC(=O)O)NC(=O)[C@H](Cc3ccc(C(=O)O)cc3)NC(=O)[C@H](Cc3ccc(OCC(=O)O)cc3)NC(=O)CSC[C@@H](C(=O)N[C@@H](C)C(N)=O)NC(=O)[C@H]([C@@H](C)O)NC(=O)[C@H](C(C)C)NC(=O)[C@H](CC3CCCCC3)NC(=O)[C@H](CCN)NC(=O)[C@@H](CC(C)C)NC(=O)[C@H](CCCN)NC(=O)[C@H](CN)NC(=O)[C@H](Cc3ccc(-c4ccccc4)cc3)NC(=O)[C@H](C(C)C)NC2=O)c1` [Compound 1416], for which the IC50 is 0.0085 µM.
Turning to `COCCNC(=O)[C@H](CCN)NC(=O)[C@@H]1CSCC(=O)N[C@@H](CCOC)C(=O)N[C@@H](Cc2ccc(OCC(=O)O)cc2)C(=O)N[C@@H](CC(=O)O)C(=O)N[C@@H](Cc2cccc(C)c2)C(=O)N[C@@H](Cc2ccc(OCC(=O)O)cc2)C(=O)N[C@@H](Cc2ccc(-c3ccccc3)cc2)C(=O)N[C@@H](Cc2ccc(OCC(=O)O)cc2)C(=O)N[C@@H](CCCN)C(=O)N[C@H](CC(C)C)C(=O)N[C@@H](CCN)C(=O)N[C@@H](CC2CCCCC2)C(=O)N[C@@H](C(C)(C)O)C(=O)N[C@@H](CO)C(=O)N1` [Compound 2075] ({CH2CO}-[hSer](Me)Y(Carboxymethyl)D[Phe(3-Me)]Y(Carboxymethyl)[Bip]Y(Carboxymethyl)[Orn][dL][Dab][Cha][Val(3-OH)]SC[Dab]-NHCH2CH2OMe; thioether N-14), the IC50 was 0.0041 µM.
For `Cc1ccccc1C[C@@H]1NC(=O)[C@H](CCN)NC(=O)[C@@H](CC(C)C)NC(=O)[C@H](CCCN)NC(=O)[C@H](CCC(=O)O)NC(=O)[C@H](Cc2ccc(-c3ccccc3)cc2)NC(=O)[C@H](C(C)C)NC(=O)[C@H](Cc2c[nH]c3ccccc23)NC(=O)[C@H](CC(=O)O)NC(=O)[C@H](Cc2ccc(OCC(=O)O)cc2)NC(=O)[C@H](CN)NC(=O)CSC[C@@H](C(=O)N[C@@H](C)C(N)=O)NC(=O)[C@H]([C@@H](C)O)NC(=O)[C@H](C(C)C)NC1=O` [Compound 1484] ({CH2CO}-[Dap]Y(Carboxymethyl)DWV[Bip]E[Orn][dL][Dab][Phe(2-Me)]VTCA-NH2; thioether N-14), the IC50 was 0.0123 µM.
For `CC(C)C[C@@H]1NC(=O)[C@H](Cc2c[nH]c3ccccc23)NC(=O)[C@H](CC(=O)O)NC(=O)[C@H](Cc2ccc(O)cc2)NC(=O)[C@H](Cc2ccccc2)NC(=O)CSC[C@@H](C(=O)N[C@@H](C)C(N)=O)NC(=O)[C@H](CO)NC(=O)[C@H](C(C)C)NC(=O)[C@H](CC(C)C)NC(=O)[C@H](CCN)NC(=O)[C@@H](CC(C)C)NC(=O)[C@H](CCN)NC(=O)[C@H](CCC(=O)O)NC(=O)[C@H](Cc2ccc(-c3ccccc3)cc2)NC1=O` [Compound 1229] ({CH2CO}-FYDWL[Bip]E[Dab][dL][Dab]LVSCA-NH2; thioether N-14), the IC50 was 0.0145 µM.
Regarding `CC(C)C[C@H]1NC(=O)[C@H](CCCN)NC(=O)[C@H](CCC(=O)O)NC(=O)[C@H](Cc2ccc(-c3ccccc3)cc2)NC(=O)[C@H](C(C)C)NC(=O)[C@H](Cc2cccc(Cl)c2)NC(=O)[C@H](CC(=O)O)NC(=O)[C@H](Cc2ccncc2)NC(=O)[C@H](CN)NC(=O)CSC[C@@H](C(=O)N[C@@H](C)C(N)=O)NC(=O)[C@H]([C@@H](C)O)NC(=O)[C@H](C(C)C)NC(=O)[C@H](CC2CCCCC2)NC(=O)[C@H](CCN)NC1=O` [Compound 1496] ({CH2CO}-[Dap][4Pal]D[Phe(3-Cl)]V[Bip]E[Orn][dL][Dab][Cha]VTCA-NH2; thioether N-14), the IC50 came out at 0.0179 µM.
With `CC(C)C[C@@H]1NC(=O)[C@H](Cc2c[nH]c3ccccc23)NC(=O)[C@H](CC(=O)O)NC(=O)[C@H](Cc2ccc(O)cc2)NC(=O)[C@H](Cc2ccccc2)NC(=O)CSC[C@@H](C(=O)NCC(N)=O)NC(=O)[C@H](CO)NC(=O)[C@H](C(C)C)NC(=O)[C@H](CC(C)C)NC(=O)[C@H](CC(N)=O)NC(=O)[C@@H](CC(C)C)NC(=O)[C@H](CCN)NC(=O)[C@H](C(C)C)NC(=O)[C@H](Cc2ccc(-c3ccccc3)cc2)NC1=O` [Compound 1059] ({CH2CO}-FYDWL[Bip]V[Dab][dL]NLVSCG-NH2; thioether N-14), the IC50 was found to be 0.0285 µM.
